Laboratory results taken from ChEMBL document CHEMBL1130692, “Novel B-ring modified combretastatin analogues: syntheses and antineoplastic activity” (Bioorg Med Chem Lett, 1998).

Legend:
Colon 26 = assay: Cytotoxic activity was determined against Colon 26 adenocarcinoma cells; format: functional, cell-based; conditions: Mus musculus
Bos taurus = species on record: Bos taurus; assay: Inhibitory activity was determined against tubulin polymerization of bovine brain tubulin; format: functional

Compound | IC50 (Colon 26) | IC50 (Bos taurus)
COc1cnc(/C=C\c2cc(OC)c(OC)c(OC)c2)nc1 | > 3000 nM | > 10000 nM
COc1ccc(/C=C\c2cc(OC)c(OC)c(OC)c2)cn1 | 29.2 nM | 2000 nM
COc1cc(/C=C\c2ccc(=O)n(C)c2)cc(OC)c1OC | > 3000 nM | > 10000 nM
COc1ccc(/C=C\c2cc(OC)c(OC)c(OC)c2)nn1 | > 3000 nM | > 10000 nM
COc1cc(/C=C\c2cc[n+]([O-])cc2)cc(OC)c1OC | > 3000 nM | > 10000 nM
COc1cnc(/C=C\c2cc(OC)c(OC)c(OC)c2)cn1 | 880 nM | 9000 nM
COc1ncc(/C=C\c2cc(OC)c(OC)c(OC)c2)cn1 | 275 nM | 3000 nM
COc1ccc(/C=C\c2cc(OC)c(OC)c(OC)c2)nc1 | 182 nM | 3000 nM
COc1cc(/C=C\c2cc[n+](C)cc2)cc(OC)c1OC | > 3000 nM | –
COc1cc(/C=C\c2ccn(C)c(=O)c2)cc(OC)c1OC | 19.2 nM | 2000 nM
COc1ccc(/C=C\c2cc(OC)c(OC)c(OC)c2)cc1N | – | 1000 nM
COc1ccc(/C=C\c2cc(OC)c(OC)c(OC)c2)cc1O [COMBRETASTATIN A4] | 8.7 nM | 2000 nM
